Reference: paper PMC6510487 (Chemosensors (Basel, Switzerland), 2018)
Ends that are not written are not given here.

Experiments:
human SIRPalpha [1] = assay: Fluorescence response of CD47 mimetic probe upon hSIRPalpha binding; conditions: 150 μM probe, 50 μM human SIRPalpha
human SIRPalpha [2] = assay: Microscale thermophoresis binding of CD47 mimetic probe to hSIRPalpha; conditions: 150 μM probe, 50 μM human SIRPalpha

Sequence: EVTELTREGE [CD47 mimetic probe]
- fluorescence enhancement upon target binding to hSIRPalpha (human SIRPalpha [1]): did not exhibit fluorescence enhancement
- binding to hSIRPalpha by MST (human SIRPalpha [2]): could bind to hSIRPalpha
